The assay addresses Glutathione S-transferase class-mu 26 kDa isozyme (Schistosoma japonicum, UniProt P08515). Put plainly: GST–glutathione bead interaction interference profiling – biochemical, multiplex beads, flow cytometry, profiling panel (AID 1769). In general terms: In flow cytometry, cells or beads pass a laser one at a time.

The structures appear in SMILES notation. pEC50: −log10 of the molar value.

Chain of Glutathione S-transferase class-mu 26 kDa isozyme (P08515 2-218 limits assumed): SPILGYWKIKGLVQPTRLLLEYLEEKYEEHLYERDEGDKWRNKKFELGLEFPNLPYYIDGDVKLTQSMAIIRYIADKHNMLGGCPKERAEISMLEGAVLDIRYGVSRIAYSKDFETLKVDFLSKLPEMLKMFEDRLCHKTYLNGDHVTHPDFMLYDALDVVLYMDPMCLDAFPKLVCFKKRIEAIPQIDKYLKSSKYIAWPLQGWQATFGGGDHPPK

With `NC(=S)NNC1=c2cc(Br)cc(Br)c2=NC1=O` [1-[[5,7-bis(bromanyl)-2-oxidanylidene-indol-3-yl]amino]thiourea], the negative logarithm of the EC50 (pEC50) (as a rule, −log10 of the EC50, conventionally taken in molar units) is 4.16.

`CN1C(=O)/C(=C2/C(=O)Nc3ccccc32)NC1=S` [SMR000198608] had a pEC50 of 4.87.

For `COc1cc(CN=Nc2ncnc3sc4c(c23)CCC4)ccc1O` [SMR000242188], the pEC50 was 4.84.

The molecule `O=c1[nH]c(N=NCc2ccc(O)cc2)nc2ccccc12` [MLS000571412] had a pEC50 of 5.11.

`CCOC1=CC(=Cc2sc(=O)[nH]c2N)C=CC1=O` gave a pEC50 of 5.61.

The molecule `Oc1ccc2ccccc2c1CN=Nc1nnc(-c2ncc[nH]2)c2ccccc12` [SMR000151639] gave a negative logarithm of the EC50 (pEC50) of 5.71. The pEC50 values of the last two molecules are within 0.2 log units of each other.

`CC(C)NC(=S)NN=C1C(=O)Nc2ccc([N+](=O)[O-])cc21` [1-[(5-nitro-2-oxidanylidene-indol-3-yl)amino]-3-propan-2-yl-thiourea]: the pEC50 was 5.84.

`COC(=O)c1cc(NC(=O)c2cccc(Cl)c2)c(=O)oc1CC=Nc1cc(C)cc(C)c1` [5-[(3-chlorobenzoyl)amino]-2-[(E)-2-(3,5-dimethylanilino)vinyl]-6-keto-pyran-3-carboxylic acid methyl ester] showed a negative logarithm of the EC50 (pEC50) of 6.25.

`CCn1cc(C(=O)O)c(=O)c2cc(F)c(N=NCc3ccccc3)cc21` [1-Ethyl-6-fluoro-4-oxo-7-{N'-[1-phenyl-meth-(E)-ylidene]-hydrazino}-1,4-dihydro-quinoline-3-carboxylic acid] showed a pEC50 of 5.41.

Molecule `O=c1[nH]c(=O)c2nnc(N=NCc3ccc(O)cc3)nc2[nH]1` [3-[2-[(4-oxidanylidenecyclohexa-2,5-dien-1-ylidene)methyl]hydrazinyl]-5H-pyrimido[4,5-e][1,2,4]triazine-6,8-dione] gave a pEC50 of 5.42. This pEC50 and that of the molecule before are within 0.2 log units of each other.

`Cc1ccc(O)c(/N=C/C2=CC(Cc3ccccc3)C=C([N+](=O)[O-])C2=O)c1` (stereo not drawn) [(6E)-6-[[(5-methyl-2-oxidanyl-phenyl)amino]methylidene]-2-nitro-4-(phenylmethyl)cyclohexa-2,4-dien-1-one] gave a negative logarithm of the EC50 (pEC50) of 5.08.

The molecule `O=C(Cc1ccccc1)NCC(=O)N/N=C1\C(=O)N(Cc2ccc3c(c2)OCO3)c2ccccc21` [MLS000587449] had a pEC50 of 4.92.

Regarding `Cc1cc(N=NCc2ccc(O)cc2O)nc(-n2nc(C)cc2C)n1` [(4E)-4-[[2-[2-(3,5-dimethylpyrazol-1-yl)-6-methyl-pyrimidin-4-yl]hydrazinyl]methylidene]-3-oxidanyl-cyclohexa-2,5-dien-1-one], the pEC50 was 6.08.

In the case of `CCn1cc(C(=O)O)c(=O)c2cc(F)c(N=NCc3ccccc3[N+](=O)[O-])cc21` [SMR000171611], the pEC50 is 5.57. This pEC50 is 0.51 log units lower than that of the molecule before.

`NC(=S)NNC1=c2cc(F)c(F)cc2=NC1=O` [MLS000589334] had a pEC50 of 4.81. Compared with the last molecule, the pEC50 is 0.76 log units lower.

Molecule `CC(N=Nc1ccc(S(N)(=O)=O)cc1[N+](=O)[O-])c1ccc2c(c1)OCO2` (stereo not drawn) had a pEC50 of 5.85.

The molecule `COc1cc(CN=Nc2nc(C)nc3c2cnn3-c2ccccc2)ccc1O` [(4E)-2-methoxy-4-[[(6-methyl-1-phenyl-4-pyrazolo[3,4-d]pyrimidinyl)hydrazo]methylidene]-1-cyclohexa-2,5-dienone] gave a pEC50 of 6.20.

In turn, `CCN(c1ccc(NC=C2C(=O)N(Cc3ccc(OC)cc3)C(=O)c3ccccc32)cc1)C(C)C` [(4E)-4-[[[4-[ethyl(propan-2-yl)amino]phenyl]amino]methylidene]-2-[(4-methoxyphenyl)methyl]isoquinoline-1,3-dione] had a pEC50 of 6.60.

With `CCOc1ccc2c(c1)C(=NN=C(N)N)C(=O)N2C` [SMR000207554], the pEC50 was 4.59.

As for `COc1ccc(-c2csc(-c3c(O)cn(C(C)C)c3N)n2)cc1OC` [5-amino-4-[4-(3,4-dimethoxyphenyl)-1,3-thiazol-2-yl]-1-propan-2-yl-2H-pyrrol-3-one], the pEC50 is 4.06.

As to `CCNC(=S)NN=C1C(=O)Nc2ccc([N+](=O)[O-])cc21` [MLS000773526], the pEC50 is 5.71.

Consider `Cc1nc(N=NCc2ccc(O)cc2)c2cnn(-c3ccccc3)c2n1` [4-[[(6-methyl-1-phenyl-4-pyrazolo[3,4-d]pyrimidinyl)hydrazo]methylidene]-1-cyclohexa-2,5-dienone], for which the pEC50 is 5.45. Compared with the last molecule, the pEC50 is 0.26 log units lower.

With `COc1ccc(N=CCc2nc(SC)nnc2C)cc1` [(4-methoxyphenyl)-[(E)-2-[6-methyl-3-(methylthio)-1,2,4-triazin-5-yl]vinyl]amine], the pEC50 is 5.56.
